{"source": "patent US20260364214A1", "about": "“MULTIVALENT FIBROBLAST ACTIVATION PROTEIN LIGANDS FOR TARGETED DELIVERY APPLICATIONS” (Philochem AG, priority 2022, published 2026)", "key": {"[1]": {"assay": "Determination of Log D7.4 (1-octanol/PBS)", "type": "physicochemical", "settings": "1-octanol/PBS pH 7.4; 177Lu-labeled", "protocol": "The lipophilicity of ^177Lu-ESV6, ^177Lu-Bi-ESV6, ^177Lu-Tri-ESV6 and ^177Lu-FAP-2286 was determined as follows. 100 μL aliquots of the radioligand (~1 MBq) in PBS buffer were added to PBS buffer (500 μL, pH 7.4) and 1-octanol (600 μL). The two-layer mixture were vigorously shaken for 10 minutes on a vortex mixer and then centrifuged at 700 rpm for 5 min to facilitate the separation. 100 μL aliquots of both layers were measured in a Packard Cobra Gamma Counter and the partition coefficient was determined by dividing cpm (octanol) by cpm (PBS) and indicated as Log D7.4. • Log D7.4 (^177Lu-ESV6): −4.13 • Log D7.4 (^177Lu-Bi-ESV6): −3.75 • Log D7.4 (^177Lu-Tri-ESV6): −3.10 • Log D7.4 (^177Lu-FAP-2286): −3.05"}, "SK-RC-52.hFAP tumors": {"tested_on": "SK-RC-52.hFAP tumors", "assay": "Quantitative biodistribution in SK-RC-52.hFAP tumor bearing mice", "type": "in vivo, mouse (female athymic Balb/c AnNRj-Foxn1)", "settings": "i.v. 250 nmol/kg, 50 MBq/kg", "protocol": "SK-RC-52.hFAP were grown to 80% confluence in RPMI-1640 with 10% fetal bovine serum (FBS) and 1% antibiotic-antimycotic and detached with Trypsin-EDTA (ethylenediaminetetraacetic acid) 0.05%. Tumor cells were resuspended in Hanks' Balanced Salt Solution medium. Aliquots of 5 million cells (100 μL of suspension) were injected subcutaneously in the right flank of female athymic Balb/c AnNRj-Foxn1 mice (6 to 8 wk of age).\nRadiolabeling of ESV6-DOTAGA, Bi-ESV6-DOTAGA, Tri-ESV6-DOTAGA, Tetra-ESV6-DOTAGA, Hexa-ESV6-DOTAGA, Octa-ESV6-DOTAGA and FAP-2286 with lutetium-177 (a therapeutic radionuclide) was performed with different specific activities for three different studies (biodistribution, therapy and dose optimization).\nPrior to the biodistribution study, precursors (100 nmol) were dissolved in 100 μL of milliQ water and diluted with 200 μL of sodium acetate (1 M in water, pH=4.5). 20 MBq of ^177Lu solution were added and the mixture was heated at 90 °C for 10 minutes, followed by dilution with […] of PBS to achieve final volume of 2 mL (20 doses of 100 μL each).\nESV6-DOTAGA, Bi-ESV6-DOTAGA, Tri-ESV6-DOTAGA, Tetra-ESV6-DOTAGA, Hexa-ESV6-DOTAGA, Octa-ESV6-DOTAGA and FAP-2286 were radiolabeled with ^177Lu as described above. Tumors were allowed to grow to an average volume of 300 mm^3. Mice were randomized and injected intravenously with radiolabeled preparations of ^177Lu-ESV6, ^177Lu-Bi-ESV6, ^177Lu-Tri-ESV6, Tetra-ESV6-DOTAGA, Hexa-ESV6-DOTAGA, Octa-ESV6-DOTAGA or ^177Lu-FAP-2286 (250 nmol/kg; 50 MBq/kg). Mice were euthanized at different time-points after the intravenous injection by CO2 asphyxiation. Tumors, organs, and blood were collected, weighted, and radioactivity was measured with a Packard Cobra Gamma Counter. Values are expressed as percent ID/g±SD [FIG. 4]. The % ID/g in the tumors was corrected considering the SK-RC-52.hFAP tumor growth rate.\nQuantitative in vivo biodistribution of ^177Lu-ESV6-DOTAGA, ^177Lu-Bi-ESV6-DOTAGA, ^177Lu-Tri-ESV6-DOTAGA, ^177Lu-FAP-2286, Tetra-ESV6-DOTAGA, Hexa-ESV6-DOTAGA and Octa-ESV6-DOTAGA at different time points after intravenous administration (250 nmol/kg, 50 MBq/kg) in mice bearing SK-RC-52.hFAP tumors, are shown in Tables 1 to 4 and 10 to 12. Data are reported as % ID/g±standard deviation.\nTumor-to-organ ratios of ^177Lu-ESV6-DOTAGA, ^177Lu-Bi-ESV6-DOTAGA, ^177Lu-Tri-ESV6-DOTAGA, ^177Lu-FAP-2286, Tetra-ESV6-DOTAGA, Hexa-ESV6-DOTAGA and Octa-ESV6-DOTAGA, at different time points after intravenous administration (250 nmol/kg, 50 MBq/kg) in mice bearing SK-RC-52.hFAP tumors, are shown in Tables 5 to 8 and 13 to 15. Avg.=average; Std.d=standard deviation."}}}
{"compound": "N#CC1CC(F)(F)CN1C(=O)CNC(=O)c1ccnc2c(NC(=O)CCC(=O)NCCNC(=O)CCOCC(COCCC(=O)NCCNC(=O)CCC(=O)Nc3cccc4c(C(=O)NCC(=O)N5CC(F)(F)CC5C#N)ccnc34)(COCCC(=O)NCCNC(=O)CCC(=O)Nc3cccc4c(C(=O)NCC(=O)N5CC(F)(F)CC5C#N)ccnc34)NC(=O)CCC(C(=O)O)N3CCN(CC(=O)[O-])CCN(CC(=O)[O-])CCN(CC(=O)[O-])CC3)cccc12.[177Lu+3]", "note": "(centres unmarked) [^177Lu-Tri-ESV6-DOTAGA]", "values": [{"measurement": "Log D7.4", "setting": "[1]", "result": "−3.10"}, {"measurement": "Tumor to organs ratio, Blood", "setting": "SK-RC-52.hFAP tumors; 6 h", "result": 260.4}, {"measurement": "Injected dose per gram, Blood", "setting": "SK-RC-52.hFAP tumors; 6 h post injection", "result": 0.25, "unit": "% ID/g"}, {"measurement": "Tumor to organs ratio, Blood", "setting": "SK-RC-52.hFAP tumors; 24 h", "result": 284.8}, {"measurement": "Injected dose per gram, Blood", "setting": "SK-RC-52.hFAP tumors; 24 h post injection", "result": 0.07, "unit": "% ID/g"}, {"measurement": "Tumor to organs ratio, Blood", "setting": "SK-RC-52.hFAP tumors; 48 h", "result": 1925.8}, {"measurement": "Injected dose per gram, Blood", "setting": "SK-RC-52.hFAP tumors; 48 h post injection", "result": 0.01, "unit": "% ID/g"}, {"measurement": "Tumor to organs ratio, Blood", "setting": "SK-RC-52.hFAP tumors; 72 h", "result": 7913.2}, {"measurement": "Injected dose per gram, Blood", "setting": "SK-RC-52.hFAP tumors; 72 h post injection", "result": 0.01, "unit": "% ID/g"}, {"measurement": "Tumor to organs ratio, Blood", "setting": "SK-RC-52.hFAP tumors; 96 h", "result": 3504}, {"measurement": "Injected dose per gram, Blood", "setting": "SK-RC-52.hFAP tumors; 96 h post injection", "result": 0.00, "unit": "% ID/g"}, {"measurement": "Tumor to organs ratio, Heart", "setting": "SK-RC-52.hFAP tumors; 6 h", "result": 215.4}, {"measurement": "Injected dose per gram, Heart", "setting": "SK-RC-52.hFAP tumors; 6 h post injection", "result": 0.23, "unit": "% ID/g"}, {"measurement": "Tumor to organs ratio, Heart", "setting": "SK-RC-52.hFAP tumors; 24 h", "result": 269.1}, {"measurement": "Injected dose per gram, Heart", "setting": "SK-RC-52.hFAP tumors; 24 h post injection", "result": 0.08, "unit": "% ID/g"}, {"measurement": "Tumor to organs ratio, Heart", "setting": "SK-RC-52.hFAP tumors; 48 h", "result": 559.6}, {"measurement": "Injected dose per gram, Heart", "setting": "SK-RC-52.hFAP tumors; 48 h post injection", "result": 0.03, "unit": "% ID/g"}, {"measurement": "Tumor to organs ratio, Heart", "setting": "SK-RC-52.hFAP tumors; 72 h", "result": 344.2}, {"measurement": "Injected dose per gram, Heart", "setting": "SK-RC-52.hFAP tumors; 72 h post injection", "result": 0.07, "unit": "% ID/g"}, {"measurement": "Tumor to organs ratio, Heart", "setting": "SK-RC-52.hFAP tumors; 96 h", "result": 492}, {"measurement": "Injected dose per gram, Heart", "setting": "SK-RC-52.hFAP tumors; 96 h post injection", "result": 0.03, "unit": "% ID/g"}, {"measurement": "Tumor to organs ratio, Intestine", "setting": "SK-RC-52.hFAP tumors; 6 h", "result": 188.9}, {"measurement": "Injected dose per gram, Intestine", "setting": "SK-RC-52.hFAP tumors; 6 h post injection", "result": 0.26, "unit": "% ID/g"}, {"measurement": "Tumor to organs ratio, Intestine", "setting": "SK-RC-52.hFAP tumors; 24 h", "result": 243.1}, {"measurement": "Injected dose per gram, Intestine", "setting": "SK-RC-52.hFAP tumors; 24 h post injection", "result": 0.10, "unit": "% ID/g"}, {"measurement": "Tumor to organs ratio, Intestine", "setting": "SK-RC-52.hFAP tumors; 48 h", "result": 282.6}, {"measurement": "Injected dose per gram, Intestine", "setting": "SK-RC-52.hFAP tumors; 48 h post injection", "result": 0.06, "unit": "% ID/g"}, {"measurement": "Tumor to organs ratio, Intestine", "setting": "SK-RC-52.hFAP tumors; 72 h", "result": 498.0}, {"measurement": "Injected dose per gram, Intestine", "setting": "SK-RC-52.hFAP tumors; 72 h post injection", "result": 0.07, "unit": "% ID/g"}, {"measurement": "Tumor to organs ratio, Intestine", "setting": "SK-RC-52.hFAP tumors; 96 h", "result": 763}, {"measurement": "Injected dose per gram, Intestine", "setting": "SK-RC-52.hFAP tumors; 96 h post injection", "result": 0.02, "unit": "% ID/g"}, {"measurement": "Tumor to organs ratio, Kidney", "setting": "SK-RC-52.hFAP tumors; 6 h", "result": 22.9}, {"measurement": "Injected dose per gram, Kidney", "setting": "SK-RC-52.hFAP tumors; 6 h post injection", "result": 2.14, "unit": "% ID/g"}, {"measurement": "Tumor to organs ratio, Kidney", "setting": "SK-RC-52.hFAP tumors; 24 h", "result": 17.2}, {"measurement": "Injected dose per gram, Kidney", "setting": "SK-RC-52.hFAP tumors; 24 h post injection", "result": 1.16, "unit": "% ID/g"}, {"measurement": "Tumor to organs ratio, Kidney", "setting": "SK-RC-52.hFAP tumors; 48 h", "result": 21.4}, {"measurement": "Injected dose per gram, Kidney", "setting": "SK-RC-52.hFAP tumors; 48 h post injection", "result": 0.78, "unit": "% ID/g"}, {"measurement": "Tumor to organs ratio, Kidney", "setting": "SK-RC-52.hFAP tumors; 72 h", "result": 24.8}, {"measurement": "Injected dose per gram, Kidney", "setting": "SK-RC-52.hFAP tumors; 72 h post injection", "result": 0.83, "unit": "% ID/g"}, {"measurement": "Tumor to organs ratio, Kidney", "setting": "SK-RC-52.hFAP tumors; 96 h", "result": 22}, {"measurement": "Injected dose per gram, Kidney", "setting": "SK-RC-52.hFAP tumors; 96 h post injection", "result": 0.73, "unit": "% ID/g"}, {"measurement": "Tumor to organs ratio, Liver", "setting": "SK-RC-52.hFAP tumors; 6 h", "result": 76.3}, {"measurement": "Injected dose per gram, Liver", "setting": "SK-RC-52.hFAP tumors; 6 h post injection, 360 min", "result": 0.65, "unit": "% ID/g"}, {"measurement": "Injected dose per gram, Liver", "setting": "SK-RC-52.hFAP tumors; 6 h post injection, listed as 177Lu-TriESV6-DOTAGA, 360 min", "result": "~ 0.7 % ID/g"}, {"measurement": "Tumor to organs ratio, Liver", "setting": "SK-RC-52.hFAP tumors; 24 h", "result": 43.9}, {"measurement": "Injected dose per gram, Liver", "setting": "SK-RC-52.hFAP tumors; 24 h post injection", "result": 0.46, "unit": "% ID/g"}, {"measurement": "Tumor to organs ratio, Liver", "setting": "SK-RC-52.hFAP tumors; 48 h", "result": 56.2}, {"measurement": "Injected dose per gram, Liver", "setting": "SK-RC-52.hFAP tumors; 48 h post injection", "result": 0.31, "unit": "% ID/g"}, {"measurement": "Tumor to organs ratio, Liver", "setting": "SK-RC-52.hFAP tumors; 72 h", "result": 1294.6}, {"measurement": "Injected dose per gram, Liver", "setting": "SK-RC-52.hFAP tumors; 72 h post injection", "result": 0.34, "unit": "% ID/g"}]}
